ChEMBL document CHEMBL1201862, “PubChem BioAssay data set” (2004)
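Dose response: 5 concentrations. Exposure: 48 h. Format: 96-well plates. Endpoint: linear interpolation; highest concentration if not reached. GI50 is the concentration that inhibits growth by half.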 Calls of active or inactive are those of the source. Rule as the data show it: active = GI50 up to about 1.1 µM and inactive = higher. Square brackets hold non-standard residues; d marks the D form. Peptide text beside a SMILES is read from it. * marks the point of attachment. ξ: configuration not given here. Propanoyl(3-(4-MeO-Ph)) = COc1ccc(CCC(=O)*)cc1; Thr(3ξ) = CC(O)[C@H](N)C(=O)O; dNMeL = CN[C@H](CC(C)C)C(=O)O; ξLac = CC(O)C(=O)O

Key:
Experiment in all cases: inhibition of tumour cell growth, NCI panel, 48 h
A498 = tested on: A498
MDA-MB-435 = tested on: MDA-MB-435
CAKI-1 = tested on: CAKI-1
UACC-62 = tested on: UACC-62
MOLT-4 = tested on: MOLT-4
SN12C = tested on: SN12C
NCI-H460 = tested on: NCI-H460
OVCAR-3 = tested on: OVCAR-3
LOX IMVI = tested on: LOX IMVI
MDA-N = tested on: MDA-N
RPMI-8226 = tested on: RPMI-8226
Malme-3M = tested on: Malme-3M
OVCAR-4 = tested on: OVCAR-4
SF-539 = tested on: SF-539
U-251 = tested on: U-251
HCT-116 = tested on: HCT-116
HT-29 = tested on: HT-29
SF-295 = tested on: SF-295
COLO 205 = tested on: COLO 205
EKVX = tested on: EKVX

Measured: GI50

CCCC(=O)Nc1ncnc2c1ncn2C1OC2COP(=O)(O)OC2C1OC(=O)CCC (stereo not given)
inactive: A498 31.9 µM | MDA-MB-435 > 100 µM | CAKI-1 > 100 µM | UACC-62 > 100 µM | MOLT-4 > 100 µM | SN12C > 100 µM | NCI-H460 > 100 µM | OVCAR-3 > 100 µM | LOX IMVI > 100 µM | MDA-N > 100 µM | RPMI-8226 > 1000 µM | Malme-3M > 100 µM | OVCAR-4 > 100 µM | SF-539 382 µM | U-251 > 100 µM | HCT-116 > 100 µM | HT-29 > 100 µM | SF-295 > 100 µM | COLO 205 > 100 µM | EKVX > 100 µM

NC(=O)C/C=C/CC(N)=O
active: MOLT-4 0.259 µM
inactive: A498 > 100 µM | MDA-MB-435 > 100 µM | CAKI-1 > 100 µM | UACC-62 > 100 µM | SN12C > 100 µM | NCI-H460 > 100 µM | OVCAR-3 > 100 µM | LOX IMVI > 100 µM | MDA-N > 100 µM | RPMI-8226 > 100 µM | Malme-3M > 100 µM | OVCAR-4 > 100 µM | SF-539 > 100 µM | U-251 > 100 µM | HCT-116 > 100 µM | HT-29 > 100 µM | SF-295 > 100 µM | COLO 205 > 100 µM | EKVX > 100 µM

O=C(NC(=O)c1ccccc1[N+](=O)[O-])Nc1ccc(Oc2ncc(Cl)cn2)c([N+](=O)[O-])c1
inactive: OVCAR-4 21.9 µM | EKVX 2.93 µM
active: A498 0.301 µM | MDA-MB-435 0.0214 µM | CAKI-1 0.0456 µM | UACC-62 0.0834 µM | MOLT-4 0.171 µM | SN12C 0.7 µM | NCI-H460 0.198 µM | OVCAR-3 0.0644 µM | LOX IMVI 0.895 µM | MDA-N 0.0227 µM | RPMI-8226 0.187 µM | Malme-3M 0.061 µM | SF-539 0.233 µM | U-251 0.255 µM | HCT-116 0.175 µM | HT-29 0.147 µM | SF-295 0.157 µM | COLO 205 0.34 µM

Cc1cc(C)cc(C(=N)c2ccccc2Cc2cccc3ccccc23)c1
inactive: A498 27.9 µM | MDA-MB-435 17.2 µM | CAKI-1 19.5 µM | UACC-62 13.9 µM | MOLT-4 9.64 µM | SN12C 17.7 µM | NCI-H460 13.5 µM | OVCAR-3 18.7 µM | LOX IMVI 18 µM | MDA-N 21.1 µM | RPMI-8226 20.3 µM | Malme-3M 12.8 µM | OVCAR-4 15.8 µM | SF-539 16.1 µM | U-251 40.6 µM | HCT-116 10.1 µM | HT-29 9.66 µM | SF-295 11 µM | COLO 205 21.3 µM | EKVX 16.7 µM

CC1(C)[C@@H]2C[C@H]1c1cnc(-c3ccccn3)cc1[C@H]2C(O)[C@@H]1c2cc(-c3ccccn3)ncc2[C@H]2C[C@@H]1C2(C)C (stereo not given in full)
active: A498 0.491 µM | MDA-MB-435 1 µM | CAKI-1 0.106 µM | UACC-62 0.247 µM | MOLT-4 0.0285 µM | SN12C 0.0547 µM | NCI-H460 0.0472 µM | OVCAR-3 0.0281 µM | LOX IMVI 0.0272 µM | MDA-N 0.627 µM | RPMI-8226 0.0893 µM | Malme-3M 0.218 µM | OVCAR-4 0.0618 µM | SF-539 0.214 µM | U-251 0.0741 µM | HCT-116 0.0374 µM | HT-29 0.112 µM | SF-295 0.0721 µM | COLO 205 0.161 µM | EKVX 0.165 µM

Nc1nc(Cl)cc(NCC2(O)CCC2)n1
inactive: A498 > 100 µM | MDA-MB-435 > 100 µM | CAKI-1 > 100 µM | UACC-62 > 100 µM | MOLT-4 > 100 µM | SN12C > 100 µM | NCI-H460 > 100 µM | OVCAR-3 > 100 µM | LOX IMVI > 100 µM | MDA-N > 100 µM | RPMI-8226 > 100 µM | Malme-3M > 100 µM | OVCAR-4 > 100 µM | SF-539 > 100 µM | U-251 > 100 µM | HCT-116 > 100 µM | HT-29 > 100 µM | SF-295 > 100 µM | COLO 205 > 100 µM | EKVX > 100 µM

COc1ccc(\N=C/C=C/C(=C/COC(C)=O)OC(C)=O)cc1
inactive: A498 32.3 µM | MDA-MB-435 18.8 µM | CAKI-1 23.6 µM | UACC-62 37.1 µM | MOLT-4 68.1 µM | SN12C 32.7 µM | NCI-H460 34.5 µM | OVCAR-3 20.7 µM | LOX IMVI 25.6 µM | MDA-N 9.38 µM | RPMI-8226 5.48 µM | Malme-3M 31.2 µM | OVCAR-4 27.2 µM | SF-539 35.9 µM | U-251 25.9 µM | HCT-116 5.53 µM | HT-29 23.2 µM | SF-295 58.5 µM | COLO 205 25.4 µM | EKVX 51.8 µM

N#Cc1c(-c2ccc(Cl)cc2)cc(-c2ccc(Nc3ccnc4cc(C(F)(F)F)ccc34)cc2)[nH]c1=O
inactive: A498 > 51.8 µM | MDA-MB-435 3.33 µM | CAKI-1 > 43.4 µM | UACC-62 21.9 µM | MOLT-4 4.05 µM | SN12C 59.2 µM | NCI-H460 > 100 µM | OVCAR-3 8.26 µM | LOX IMVI 2.94 µM | MDA-N 3.53 µM | RPMI-8226 21.1 µM | Malme-3M 14.1 µM | OVCAR-4 8.41 µM | SF-539 6.65 µM | U-251 2.63 µM | HCT-116 4.76 µM | HT-29 7.13 µM | SF-295 36.1 µM | COLO 205 21 µM | EKVX > 100 µM

CCCCCCCCCC[C@H](O)[C@H](O)CC[C@@H](O)[C@H]1CC[C@@H]([C@H]2CC[C@H](CCCCCCC[C@@H](O)CC3=C[C@H](C)OC3=O)O2)O1
active: RPMI-8226 0.82 µM
inactive: A498 8.97 µM | MDA-MB-435 1.31 µM | CAKI-1 2.25 µM | UACC-62 1.67 µM | MOLT-4 2.26 µM | SN12C 4.06 µM | NCI-H460 1.82 µM | OVCAR-3 1.42 µM | LOX IMVI 1.33 µM | MDA-N 2.82 µM | Malme-3M 15.3 µM | OVCAR-4 24.4 µM | SF-539 4.48 µM | U-251 41.5 µM | HCT-116 2.64 µM | HT-29 2.2 µM | SF-295 1.22 µM | COLO 205 1.71 µM | EKVX 1.46 µM

CC(C)(CN)CN
inactive: A498 > 100 µM | MDA-MB-435 > 100 µM | CAKI-1 > 100 µM | UACC-62 > 100 µM | MOLT-4 > 100 µM | SN12C > 100 µM | NCI-H460 > 100 µM | OVCAR-3 > 100 µM | LOX IMVI > 100 µM | MDA-N > 100 µM | RPMI-8226 > 100 µM | Malme-3M > 100 µM | OVCAR-4 > 100 µM | SF-539 > 100 µM | U-251 > 100 µM | HCT-116 > 100 µM | HT-29 > 100 µM | SF-295 > 100 µM | COLO 205 > 100 µM | EKVX > 100 µM

COC(=O)[C@@H](NC(=O)[C@@H](CC(C)C)N(C)C(=O)[C@@H]1CCCN1C(=O)C(C)O)C(C)OC(=O)CCc1ccc(OC)cc1 (stereo not given in full) (H-[ξLac]P[dNMeL][Thr(3ξ)](Propanoyl(3-(4-MeO-Ph)))-OMe)
inactive: A498 > 100 µM | MDA-MB-435 > 100 µM | CAKI-1 > 100 µM | UACC-62 > 100 µM | MOLT-4 60.5 µM | SN12C > 100 µM | NCI-H460 > 100 µM | OVCAR-3 > 100 µM | LOX IMVI > 100 µM | MDA-N > 100 µM | RPMI-8226 > 100 µM | Malme-3M > 100 µM | OVCAR-4 > 100 µM | SF-539 > 100 µM | U-251 > 100 µM | HCT-116 > 100 µM | HT-29 > 100 µM | SF-295 > 100 µM | COLO 205 > 100 µM | EKVX > 100 µM

COC(=O)Nc1nc2ccccc2[nH]1 [CARBENDAZIM]
inactive: A498 > 100 µM | MDA-MB-435 2.34 µM | CAKI-1 11.4 µM | UACC-62 4 µM | MOLT-4 6.34 µM | SN12C 21.9 µM | NCI-H460 3.36 µM | OVCAR-3 4 µM | LOX IMVI 8.73 µM | MDA-N 2.98 µM | RPMI-8226 5.25 µM | Malme-3M > 43.9 µM | OVCAR-4 > 47.4 µM | SF-539 5.2 µM | U-251 4.86 µM | HCT-116 4.21 µM | HT-29 4.66 µM | SF-295 4.72 µM | COLO 205 5.05 µM | EKVX > 52.7 µM
